Source: patent publication US8969516B2, “Method of hydrolysis of peptide bond” (priority 2006, dated 2015)

Experiment: MALDI-TOF screening of Ni^2+ dependent hydrolysis in a combinatorial peptide library
Type: physicochemical
Conditions: CH3CO-Gly-Ala-Ser-X-His-Z-Lys-Phe-Leu-NH2 library, Ni^2+ 2 mM, pH 8.2, 10 mM Tris, score=24/tm
Source text: The sequence CH3CO-Gly-Ala-Ser/Thr-X-His-Z-Lys-Phe-Leu-NH2 was designed so that the fixed R1 and R2 sequences, CH3CO-Gly-Ala, and Lys-Phe-Leu-NH2, respectively, allowed optimal detection by MALDI-TOF mass spectrometry of substrates as well as expected products, Ser/Thr-X-His-Z-Lys-Phe-Leu-NH2 and assured separation between the clusters of signals for substrates and products in sublibraries (see below).
Residues in position X included all amino acids commonly present in proteins, except for Asp, Glu, and Cys. The former two contain carboxylates in their side chains, which may bind Ni^2+ in a way which would quench or slow down the hydrolysis reaction. The Cys residue may do the same, and also may engage in side reactions with Ni^2+ ions, including redox processes (for example see Bal and Kasprzak, Toxicol. Lett. 2002, 127, 55-62). Only the Cys residue was eliminated from position Z, for the same reasons.
The synthesis of the library was accomplished on a RINK amide resin (Novabiochem) on a 800 mg scale, according to a typical Fmoc protocol (Fields, Meth. Enzymol. Vol. 289). The resin-attached Leu-Phe-Lys peptide was synthesised first and coupled with the isokinetic mixture of 19 amino acids selected for position Z, and then with the H is residue. The resin carrying the library of pentapeptides was divided into Ser and Thr halves at this stage, and each of these halves into 17 portions, which were coupled with individual amino acids selected for position X. The coupling with Ser or Thr as appropriate, additions of Ala and Gly residues, acetylation of Gly, deprotection and cleavage from the resin were accomplished subsequently. Each of the resulting 34 samples of sublibraries randomized at position X was separated into two portions, one for the reaction at 37° C. and another for the reaction at 45° C. The hydrolysis reactions were accomplished in 10 mM Tris buffers at pH 8.2. The total concentrations of peptide mixtures and Ni^2+ ions were 1 mM and 2 mM, respectively. The pH for the reaction was chosen as selective for highly reactive sequences.
The detection of reaction products was accomplished with the use of a MALDI-TOF mass spectrometer (Micromass). The aliquots were removed from reaction mixtures and measured by MS at 2, 4, 6, and 8 hours of incubation. The progress of reaction was evaluated by visual detection in mass spectra of appearance of signals corresponding to expected products of hydrolysis, Ser/Thr-X-His-Z-Lys-Phe-Leu-NH2, at given measurement times, tm. […] Also the decrease of signals of substrates was controlled in these cases.
Residues X and Z were then sorted according to various molecular parameters, describing their physical properties (Carugo, In Silico Biol. 2003, 3, 0035). […] The Ser library provided a higher number of reactive peptides than the Thr library. Following the additivity of effects, the scores were also summed up in lines and columns of Table 1A-D, thereby creating final rankings for preferred substitutions in positions X and Z.

| Substance | hydrolysis score from MALDI-TOF screening (37° C.) | hydrolysis score from MALDI-TOF screening (45° C.) |
| --- | --- | --- |
| Ac-GASHHVKFL-NH2 [SHHV] | 6 (a score of 6 for detection at 4 hours) | 6 (a score of 6 for detection at 4 hours) |
| Ac-GASHHWKFL-NH2 [SHHW] | 6 (a score of 6 for detection at 4 hours) | 12 (a score of 12, if it was seen to be partially hydrolysed at 2 hours) |
| Ac-GASHHYKFL-NH2 [SHHY] | 3 (a score of 3 for detection at 8 hours) | 4 (a score of 4 for detection at 6 hours) |
| Ac-GASIHAKFL-NH2 [SIHA] | 0 (a score of 0 if no trace of the product of hydrolysis was seen after 8 hours of incubation) | 0 (a score of 0 if no trace of the product of hydrolysis was seen after 8 hours of incubation) |
| Ac-GASIHDKFL-NH2 [SIHD] | 0 (a score of 0 if no trace of the product of hydrolysis was seen after 8 hours of incubation) | 0 (a score of 0 if no trace of the product of hydrolysis was seen after 8 hours of incubation) |
| Ac-GASIHEKFL-NH2 [SIHE] | 0 (a score of 0 if no trace of the product of hydrolysis was seen after 8 hours of incubation) | 0 (a score of 0 if no trace of the product of hydrolysis was seen after 8 hours of incubation) |
| Ac-GASIHFKFL-NH2 [SIHF] | 0 (a score of 0 if no trace of the product of hydrolysis was seen after 8 hours of incubation) | 0 (a score of 0 if no trace of the product of hydrolysis was seen after 8 hours of incubation) |
| Ac-GASIHGKFL-NH2 [SIHG] | 0 (a score of 0 if no trace of the product of hydrolysis was seen after 8 hours of incubation) | 0 (a score of 0 if no trace of the product of hydrolysis was seen after 8 hours of incubation) |
| Ac-GASIHHKFL-NH2 [SIHH] | 3 (a score of 3 for detection at 8 hours) | 3 (a score of 3 for detection at 8 hours) |
| Ac-GASIHIKFL-NH2 [SIHI] | 3 (a score of 3 for detection at 8 hours) | 3 (a score of 3 for detection at 8 hours) |
| Ac-GASIHKKFL-NH2 [SIHK] | 3 (a score of 3 for detection at 8 hours) | 4 (a score of 4 for detection at 6 hours) |
| Ac-GASIHMKFL-NH2 [SIHM] | 0 (a score of 0 if no trace of the product of hydrolysis was seen after 8 hours of incubation) | 0 (a score of 0 if no trace of the product of hydrolysis was seen after 8 hours of incubation) |
| Ac-GASIHNKFL-NH2 [SIHN] | 0 (a score of 0 if no trace of the product of hydrolysis was seen after 8 hours of incubation) | 0 (a score of 0 if no trace of the product of hydrolysis was seen after 8 hours of incubation) |
| Ac-GASIHPKFL-NH2 [SIHP] | 0 (a score of 0 if no trace of the product of hydrolysis was seen after 8 hours of incubation) | 0 (a score of 0 if no trace of the product of hydrolysis was seen after 8 hours of incubation) |
| Ac-GASIHQKFL-NH2 [SIHQ] | 0 (a score of 0 if no trace of the product of hydrolysis was seen after 8 hours of incubation) | 0 (a score of 0 if no trace of the product of hydrolysis was seen after 8 hours of incubation) |
| Ac-GASIHRKFL-NH2 [SIHR] | 3 (a score of 3 for detection at 8 hours) | 3 (a score of 3 for detection at 8 hours) |

| Substance | hydrolysis score from MALDI-TOF screening (37° C.) | hydrolysis score from MALDI-TOF screening (45° C.) |
| --- | --- | --- |
| Ac-GASIHSKFL-NH2 [SIHS] | 0 (a score of 0 if no trace of the product of hydrolysis was seen after 8 hours of incubation) | 0 (a score of 0 if no trace of the product of hydrolysis was seen after 8 hours of incubation) |
| Ac-GASIHTKFL-NH2 [SIHT] | 0 (a score of 0 if no trace of the product of hydrolysis was seen after 8 hours of incubation) | 0 (a score of 0 if no trace of the product of hydrolysis was seen after 8 hours of incubation) |
| Ac-GASIHVKFL-NH2 [SIHV] | 3 (a score of 3 for detection at 8 hours) | 3 (a score of 3 for detection at 8 hours) |
| Ac-GASIHWKFL-NH2 [SIHW] | 3 (a score of 3 for detection at 8 hours) | 3 (a score of 3 for detection at 8 hours) |
| Ac-GASIHYKFL-NH2 [SIHY] | 0 (a score of 0 if no trace of the product of hydrolysis was seen after 8 hours of incubation) | 0 (a score of 0 if no trace of the product of hydrolysis was seen after 8 hours of incubation) |
| Ac-GASKHAKFL-NH2 [SKHA] | 0 (a score of 0 if no trace of the product of hydrolysis was seen after 8 hours of incubation) | 0 (a score of 0 if no trace of the product of hydrolysis was seen after 8 hours of incubation) |
| Ac-GASKHDKFL-NH2 [SKHD] | 0 (a score of 0 if no trace of the product of hydrolysis was seen after 8 hours of incubation) | 0 (a score of 0 if no trace of the product of hydrolysis was seen after 8 hours of incubation) |
| Ac-GASKHEKFL-NH2 [SKHE] | 0 (a score of 0 if no trace of the product of hydrolysis was seen after 8 hours of incubation) | 3 (a score of 3 for detection at 8 hours) |
| Ac-GASKHFKFL-NH2 [SKHF] | 4 (a score of 4 for detection at 6 hours) | 4 (a score of 4 for detection at 6 hours) |
| Ac-GASKHGKFL-NH2 [SKHG] | 0 (a score of 0 if no trace of the product of hydrolysis was seen after 8 hours of incubation) | 0 (a score of 0 if no trace of the product of hydrolysis was seen after 8 hours of incubation) |
| Ac-GASKHHKFL-NH2 [SKHH] | 4 (a score of 4 for detection at 6 hours) | 3 (a score of 3 for detection at 8 hours) |
| Ac-GASKHIKFL-NH2 [SKHI] | 6 (a score of 6 for detection at 4 hours) | 12 (a score of 12, if it was seen to be partially hydrolysed at 2 hours) |
| Ac-GASKHKKFL-NH2 [SKHK] | 6 (a score of 6 for detection at 4 hours) | 12 (a score of 12, if it was seen to be partially hydrolysed at 2 hours) |
| Ac-GASKHMKFL-NH2 [SKHM] | 3 (a score of 3 for detection at 8 hours) | 4 (a score of 4 for detection at 6 hours) |
| Ac-GASKHNKFL-NH2 [SKHN] | 0 (a score of 0 if no trace of the product of hydrolysis was seen after 8 hours of incubation) | 0 (a score of 0 if no trace of the product of hydrolysis was seen after 8 hours of incubation) |
